From article PMC6895048, “4,5-Disubstituted 1,2,3-triazoles: Effective Inhibition of Indoleamine 2,3-Dioxygenase 1 Enzyme Regulates T cell Activity and Mitigates Tumor Growth” (Scientific Reports, 2019)

Key:
[1] = target: T1, purified human IDO1 enzyme (Homo sapiens, UniProt P14902); test: IDO1 inhibition assay by the spectrometric method (pDMAB); assay type: biochemical; settings: for IC50: purified human IDO1, spectrophotometric, mean of three independent assays, read-out: hIDO1 IC50
T1 construct: made in house; host or cells: Escherichia coli M15 (pQE30 vector with pREP4 plasmid)
Experimental: Both IDO1 and TDO inhibition assays were performed according to the reported procedures[26]–[30],[50],[51]. […] In the assay system, the minimum and maximum amount of DMSO was 0.02% and 2%, respectively. […] The concentration of the inhibitors was varied from 100 µM to 32 nM by serial dilution technique. Then, the reaction was quenched with 100 µL of 30% (w/v) trichloroacetic acid and was incubated for further 15 minutes at 65 °C. After that, 2% (w/v) pDMAB was used to quantify the amount of kynurenine formation. The absorbance of the reaction mixture was recorded by UV-Vis spectrophotometer at 480 nm.

[2] = target: T2, purified human TDO enzyme (Homo sapiens, UniProt P48775); test: TDO inhibition assay by the spectrometric method; assay type: biochemical; settings: spectrophotometric
T2 construct: 6xHis (N); made in house; host or cells: Escherichia coli BL21 (DE3) (pET 28a vector)
Experimental: Both IDO1 and TDO inhibition assays were performed according to the reported procedures[26]–[30],[50],[51]. The solubility of the compounds in water was either moderate or poor. […] In the assay system, the minimum and maximum amount of DMSO was 0.02% and 2%, respectively. The standard reaction mixture (500 μL) containing KPB (100 mM, pH 6.5 for IDO1 enzyme and 50 mM, pH 8.0 for TDO enzyme), sodium ascorbate (20 mM), methylene blue (10 µM), catalase (240 nM, from bovine liver), L-Trp (150 µM), purified enzyme (40 nM for IDO1 and 25 nM for TDO), DMSO (0.05%, v/v), Triton-X 100 (0.01%, v/v) and inhibitors was incubated at 37 °C for 1 hour. The concentration of the inhibitors was varied from 100 µM to 32 nM by serial dilution technique. Then, the reaction was quenched with 100 µL of 30% (w/v) trichloroacetic acid and was incubated for further 15 minutes at 65 °C. After that, 2% (w/v) pDMAB was used to quantify the amount of kynurenine formation. The absorbance of the reaction mixture was recorded by UV-Vis spectrophotometer at 480 nm. The Km = 59.76 µM and Kcat = 6.18 sec^−1.

[3] = target: T3, IDO1 (Homo sapiens, UniProt P14902); test: Cellular IDO1 activity assay in IFN-γ induced MDA-MB-231 cells; assay type: cell-based; set-up: induce the expression of the native IDO1 enzyme from its mRNA in the MDA-MB-231 cells; endogenous in cells; host or cells: MDA-MB-231 cells induced with human IFN-γ (50 ng/mL); settings: IDO1 expression induced by human IFN-γ (50 ng/mL); mean of three
Experimental: The cellular enzyme activity assay was performed according to the reported procedure with minor modifications[19],[27]–[30],[33],[54]. Briefly, MDA-MB-231 breast cancer cells were selected for this assay because of the presence of IDO1 mRNA in this cell line. First, cells were grown in DMEM/F12 complete media overnight. Then different concentration of human interferon-gamma (IFN-γ) (from 5–1000 ng/mL) was added to it and incubated for 48 hours. This treatment is reported to allow over-expression of IDO1 enzyme in MDA-MB-231 cells. […] Sterile cell-culture grade PBS was used to wash the cells by centrifugation technique. Then, the pellet was lysed in 10 mM HEPES buffer by passing through a sterile syringe. The lysate was used for standard IDO1 assay as mentioned earlier. The relative amount of N-formylkynurenine generated in the presence of the different concentration of IFN-γ was used to optimize the required concentration of IFN-γ for the IDO1 inhibition assay. […] Cells stimulated with IFN-γ alone were used as negative control, while cells stimulated with L-Trp without compound served as positive control. The cells were washed with sterile cell culture grade PBS and lysed in 10 mM HEPES buffer by sterile syringe. The lysate was used for standard IDO1 assay, as mentioned earlier, and the extent of IDO1 enzyme inhibition was determined for the selected compounds.

[4] = target: T4, TDO enzyme (Homo sapiens, UniProt P48775); test: HPLC based TDO inhibition assay; assay type: biochemical
T4 construct: 6xHis (N); made in house; host or cells: Escherichia coli BL21 (DE3) (pET 28a vector)
Experimental: (§1) HPLC based IDO1, and TDO inhibition assays were performed according to the earlier reported procedure[19],[27]–[30]. The reaction mixture (250 µL) contained KPB (100 mM, pH 6.5 for IDO1 and 50 mM, pH 8.0 for TDO), sodium ascorbate (20 mM), methylene blue (10 µM), catalase (240 nM, from bovine liver, Sigma), L-Trp (150 µM), purified enzyme (40 nM for IDO1 and 25 nM for TDO), DMSO (0.05%, v/v), Triton-X 100 (0.01%, v/v) and inhibitors. The concentration of the compound was varied from 100 µM to 32 nM by serial dilution. The mixture was incubated at 37 °C for 1 hour in the absence and presence of the synthesized compounds. The reaction was then quenched using 50 µL of 30% (w/v) trichloroacetic acid and incubated at 65 °C for additional 15 minutes to allow complete hydrolysis of N-formylkynurenine to kynurenine. After that, the mixture was centrifuged at 10,000 rpm for 10 minutes, and 100 µL of clear solution was transferred to another tube for HPLC analysis. Then, 20 µL of the reaction mixture was then injected through Ascentis® express C18, 2.7 µm HPLC column with a flow rate of 0.5 mL/minute of the mobile phase containing 50% sodium citrate buffer (40 mM, pH 2.25) and 50% methanol (v/v) with 400 µM SDS. The area under the curve at 365 nm chromatogram corresponding to the kynurenine formation was recorded, and % of inhibition was calculated using standard curve prepared with pure kynurenine (from Sigma) under similar experimental conditions.

[5] = target: T3, IDO1; test: Kynurenine assay by HPLC analysis, IDO1; assay type: biochemical; set-up: made in house; host or cells: Escherichia coli M15 (pQE30 vector with pREP4 plasmid); settings: for IC50: HPLC based IDO1 inhibition assay; for % Of inhibition for IDO1 enzyme: HPLC
Experimental: as §1

T1 sequence (P14902 whole entry): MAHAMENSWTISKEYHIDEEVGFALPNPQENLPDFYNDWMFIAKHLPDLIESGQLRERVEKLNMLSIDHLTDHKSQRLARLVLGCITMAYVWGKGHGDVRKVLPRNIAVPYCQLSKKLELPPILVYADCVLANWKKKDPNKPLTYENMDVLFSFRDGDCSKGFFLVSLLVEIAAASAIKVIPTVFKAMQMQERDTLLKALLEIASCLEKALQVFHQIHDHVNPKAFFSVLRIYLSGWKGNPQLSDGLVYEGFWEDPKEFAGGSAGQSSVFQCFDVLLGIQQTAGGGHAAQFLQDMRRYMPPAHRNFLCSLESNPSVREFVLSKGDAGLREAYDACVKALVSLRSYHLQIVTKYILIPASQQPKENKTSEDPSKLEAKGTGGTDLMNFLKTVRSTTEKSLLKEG
T3 sequence (P14902 whole entry): as above
T2 sequence (P48775 whole entry): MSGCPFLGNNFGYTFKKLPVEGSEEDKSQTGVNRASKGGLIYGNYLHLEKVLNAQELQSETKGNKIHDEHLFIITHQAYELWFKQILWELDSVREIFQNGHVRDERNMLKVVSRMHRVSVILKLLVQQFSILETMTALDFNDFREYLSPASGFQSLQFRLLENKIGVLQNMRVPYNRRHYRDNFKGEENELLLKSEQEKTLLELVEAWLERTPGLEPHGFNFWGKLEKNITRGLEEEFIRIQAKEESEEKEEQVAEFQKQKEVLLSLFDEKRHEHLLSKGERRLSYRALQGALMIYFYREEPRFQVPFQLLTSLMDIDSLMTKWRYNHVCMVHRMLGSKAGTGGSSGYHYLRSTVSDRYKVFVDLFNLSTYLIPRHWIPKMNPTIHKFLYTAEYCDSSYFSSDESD
T4 sequence (P48775 whole entry): as above

For `Fc1ccc(-c2n[nH]nc2-c2ccc(F)c(Cl)c2)cc1Cl` [Compound 1k], the IC50 [1] was 6.91 ± 0.099 µM.
`NC(=O)c1n[nH]nc1-c1ccc(Br)cc1` [Compound 3h] gave an IC50 [1] of 5.156 ± 0.011 µM.
With `CCOC(=O)c1n[nH]nc1-c1ccc(Cl)cc1` [Compound 2g] the IC50 [1] was 0.392 ± 0.084 µM, the “% of Enzyme inhibition (TDO)” value ([2]; 32 nM) was 16% and the “% of Enzyme inhibition (TDO)” value ([2]; 160 nM) was 18%. The “% of Enzyme inhibition (TDO)” value ([2]; 800 nM) was 23%, the “% of Enzyme inhibition (TDO)” value ([2]; 4 µM) was 28% and the “% of Enzyme inhibition (TDO)” value ([2]; 20 µM) was 36%. The “% of Enzyme inhibition (TDO)” value ([2]; 100 µM) was 46%.
For `NC(=O)c1n[nH]nc1-c1ccc(Cl)c(Cl)c1` [Compound 3j], the EC50 [3] was 0.053 ± 0.004 µM, the IC50 [1] was 0.069 ± 0.004 µM and the “% Of inhibition for TDO enzyme” value ([4]; 32 nM) was 33%. For the same molecule, the “% Of inhibition for TDO enzyme” value ([4]; 160 nM) was 39%, the “% Of inhibition for TDO enzyme” value ([4]; 800 nM) was 42% and the “% Of inhibition for TDO enzyme” value ([4]; 4 µM) was 47%. For the same molecule, the “% Of inhibition for TDO enzyme” value ([4]; 20 µM) was 51%, the “% Of inhibition for TDO enzyme” value ([4]; 100 µM) was 51% and the IC50 [5] was 0.099 ± 0.024 µM. The “% Of inhibition for IDO1 enzyme” value ([5]; 32 nM) was 39%, the “% Of inhibition for IDO1 enzyme” value ([5]; 160 nM) was 60% and the “% Of inhibition for IDO1 enzyme” value ([5]; 800 nM) was 70%. The “% Of inhibition for IDO1 enzyme” value ([5]; 4 µM) was 88%, the “% Of inhibition for IDO1 enzyme” value ([5]; 20 µM) was 89% and the “% Of inhibition for IDO1 enzyme” value ([5]; 100 µM) was 89%. The “% of Enzyme inhibition (TDO)” value ([2]; 32 nM) was 6%, the “% of Enzyme inhibition (TDO)” value ([2]; 160 nM) was 9% and the “% of Enzyme inhibition (TDO)” value ([2]; 800 nM) was 20%. The “% of Enzyme inhibition (TDO)” value ([2]; 4 µM) was 27%, the “% of Enzyme inhibition (TDO)” value ([2]; 20 µM) was 32% and the “% of Enzyme inhibition (TDO)” value ([2]; 100 µM) was 60%.
`CCOC(=O)c1n[nH]nc1-c1ccc(Br)cc1` [Compound 2h] gave an IC50 [1] of 18.4 ± 1.68 µM.
In the case of `O=C(O)c1n[nH]nc1-c1ccc(F)c(F)c1` [Compound 4a], the EC50 [3] is reported as 1.23 ± 0.021 µM, the IC50 [1] is reported as 17.4 ± 0.918 µM and the “% Of inhibition for TDO enzyme” value ([4]; 32 nM) is reported as 6%. For the same molecule, the “% Of inhibition for TDO enzyme” value ([4]; 160 nM) was 18%, the “% Of inhibition for TDO enzyme” value ([4]; 800 nM) was 26% and the “% Of inhibition for TDO enzyme” value ([4]; 4 µM) was 38%. For the same molecule, the “% Of inhibition for TDO enzyme” value ([4]; 20 µM) was 41%, the “% Of inhibition for TDO enzyme” value ([4]; 100 µM) was 54% and the IC50 [5] was 8.944 ± 0.087 µM. The “% Of inhibition for IDO1 enzyme” value ([5]; 32 nM) was 11%, the “% Of inhibition for IDO1 enzyme” value ([5]; 160 nM) was 13% and the “% Of inhibition for IDO1 enzyme” value ([5]; 800 nM) was 29%. The “% Of inhibition for IDO1 enzyme” value ([5]; 4 µM) was 30%, the “% Of inhibition for IDO1 enzyme” value ([5]; 20 µM) was 57% and the “% Of inhibition for IDO1 enzyme” value ([5]; 100 µM) was 65%. The “% of Enzyme inhibition (TDO)” value ([2]; 32 nM) was 4%, the “% of Enzyme inhibition (TDO)” value ([2]; 160 nM) was 8% and the “% of Enzyme inhibition (TDO)” value ([2]; 800 nM) was 16%. The “% of Enzyme inhibition (TDO)” value ([2]; 4 µM) was 18%, the “% of Enzyme inhibition (TDO)” value ([2]; 20 µM) was 22% and the “% of Enzyme inhibition (TDO)” value ([2]; 100 µM) was 30%.
Work on `O=C(N/C(Cc1ccccc1)=N\O)c1n[nH]nc1-c1ccc(F)c(F)c1` [Compound 4g] yielded an IC50 [1] of 0.88 ± 0.018 µM.
Work on `Cc1ccc(-c2n[nH]nc2-c2ccc(C)cc2)cc1` [Compound 1b] yielded an IC50 [1] of 54.9 ± 0.757 µM.
Molecule `Fc1ccc(-c2n[nH]nc2-c2ccc(F)cc2)cc1` [Compound 1f] has an IC50 [1] of 25.2 ± 1.7 µM.
`CCOC(=O)c1n[nH]nc1-c1ccc(C)cc1` [Compound 2b] was tested, and the IC50 [1] was 1.7 ± 0.061 µM.
`CCOC(=O)c1n[nH]nc1-c1cccc(F)c1` [Compound 2c] showed an IC50 [1] of 31.4 ± 4.21 µM.
`CCOC(=O)c1n[nH]nc1-c1ccc(F)c(Br)c1` [2 l] was tested, and the IC50 [1] was 3.04 ± 0.091 µM.
`c1ccc(-c2nn[nH]c2-c2ccccc2)cc1` [Compound 1a, 4,5-diphenyl 2H-1,2,3-triazole] was tested, and the IC50 [1] was 90 ± 2.94 µM, the inhibition at 0.032 µM ([2]; 32 nM) was 8% and the inhibition at 0.16 µM ([2]; 160 nM) was 10%. For the same molecule, the inhibition at 0.8 µM ([2]; 800 nM) was 19%, the inhibition at 4 µM ([2]; 4 µM) was 28% and the inhibition at 20 µM ([2]; 20 µM) was 40%. For the same molecule, the inhibition at 100 µM ([2]; 100 µM) was 59%.
`Clc1ccc(-c2n[nH]nc2-c2ccc(Cl)c(Cl)c2)cc1Cl` [Compound 1j] showed an IC50 [1] of 12.9 ± 0.191 µM.
`O=C(NC1C2CC3CC(C2)CC1C3)c1n[nH]nc1-c1ccc(Cl)c(Cl)c1` (centres unmarked) [Compound 4e] gave an IC50 [1] of 18.7 ± 0.398 µM.
`O=C(N/C(Cc1ccc(F)c(F)c1)=N\O)c1n[nH]nc1-c1ccc(F)c(F)c1` [Compound 4h] was tested, and the IC50 [1] was 3.81 ± 0.24 µM.
For `Brc1cccc(-c2n[nH]nc2-c2cccc(Br)c2)c1` [Compound 1e], the IC50 [1] was 21.9 ± 1.27 µM.
With `Fc1ccc(-c2n[nH]nc2-c2ccc(F)c(Br)c2)cc1Br` [1 l] the “fold stronger IDO1 inhibitory activity than 1a” value ([1]; in comparison with lead compound 1a) was 46 fold and the IC50 [1] was 1.94 ± 0.083 µM.
